Key:
ovulation = assay: Case study on ovulation, reproductive disorders; format: in vivo, human; conditions: person
Excerpt: In a host subject cessation of ovulation (as indicated by watery pale menstrual cycles), intense ovulation-related pains and anovulatry menstruation at extremely low omega-6 fatty acids in diet were observed; olive oil being the main fat source. It is hypothesized herein that this was due to deficiency of omega-6 derived prostaglandins, which aid ovulation.

[1] = cited from earlier work; for effect on blood cholesterol: saturated fats of chain-length 12, 14 and 16
[2] = test system: inflammation, immunity, infection; conditions: menopausal person; 11 g LA; ALA reduced from 1.8 g to 1.2 g

For `CC(C)Cc1ccc(C(C)C(=O)O)cc1` (stereo not shown) [Advil], the “cessation of ovulation, ovulation-related pains, anovulatory menstruation” value (ovulation) was “same phenomenon was observed”.
In the case of `CCCCCCCCCCCCCCCCCC(=O)O` [Stearic acid], the lowering of cholesterol ([1]; in vivo) is listed as 21%.
With `CC/C=C\C/C=C\C/C=C\CCCCCCCC(=O)O` [ALA, Alpha-linolenic Acid] the “symptoms (spinal burning sensation, heat in the body, delayed wound healing, vaginal yeast infection)” value [2] was “disappeared”.
In the case of `CCCCCCCCCCCCCC(=O)O` [myristic acid], the “effect on blood cholesterol” value [1] is listed as “elevate blood cholesterol”.
For `CCCCCCCCCCCC(=O)O` [lauric acid], the “effect on blood cholesterol” value [1] is given as “elevate blood cholesterol”.
For `CCCCCCCC/C=C\CCCCCCCC(=O)O` [oleic acid], the “lowering of LDL” value ([1]; in vivo) is listed as 15%.
For `CCCCCCCCCCCCCCCC(=O)O` [palmitic acid], the “effect on blood cholesterol” value [1] is listed as “elevate blood cholesterol”.

Reference: patent publication US10292958B2, “Lipid-containing compositions and methods of use thereof” (ASHA NUTRITION SCIENCES, INC., priority 2008, dated 2019)
